Measured values as given in patent US20220396565A1 (Hoffmann-La Roche Inc., priority 2020, published 2022).
Where a name gives a salt, the structure may show the parent alone.

The compounds below were run on Acinetobacter baumannii ATCC17961 (assay: Antimicrobial susceptibility testing: 90% growth inhibitory concentration (IC90) determination, Iso-Sensitest broth). Details: Acinetobacter baumannii, ATCC17961, 90% growth inhibitory concentration, Acinetobacter baumannii ATCC17961, Iso-Sensitest broth; read-out: ATCC 17961 IC90.
Assay type: cell-based
Procedure, shortened: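 Growth at OD600 was monitored every 20 min for 16 h at 35±2 °C, with bacteria inoculated at ~5×10^(5) CFU/ml into Iso-Sensitest medium. Compounds were tested as 10-point twofold dilutions (e.g. 10–0.02 μM final). The 90% inhibitory concentration comes from the log-phase growth.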

IC90 | Structure (SMILES)
50 nM | CN(C)CC(=O)N1CCN(C(=O)c2ccc(NC(=O)c3ncc(-c4ccc(OC(F)F)cc4F)n3C)cc2Cl)CC1 [Example 175, N-[3-chloro-4-[4-[2-(dimethylamino)acetyl]piperazine-1-carbonyl]phenyl]-5-[4-(difluoromethoxy)-2-fluoro-phenyl]-1-methyl-imidazole-2-carboxamide formate]
80 nM | CN(C)CC(=O)N1CCN(C(=O)c2ccc(NC(=O)c3ncc(-c4ccc(OC(F)F)c(F)c4)n3C)cc2Cl)CC1 [Example 176, N-[3-chloro-4-[4-[2-(dimethylamino)acetyl]piperazine-1-carbonyl]phenyl]-5-[4-(difluoromethoxy)-3-fluoro-phenyl]-1-methyl-imidazole-2-carboxamide formate]
50 nM | COc1ccc(-c2cnc(C(=O)Nc3ccc(C(=O)N4CCN(C(=O)CC5(O)CNC5)CC4)c(Cl)c3)n2C)c(F)c1F [Example 177, N-[3-chloro-4-[4-[2-(3-hydroxyazetidin-3-yl)acetyl]piperazine-1-carbonyl]phenyl]-5-(2,3-difluoro-4-methoxy-phenyl)-1-methyl-imidazole-2-carboxamide formate]
70 nM | Cn1c(-c2ccc(OC(F)F)cc2F)cnc1C(=O)Nc1ccc(C(=O)N2CCN(C(=O)CC3CNC3)CC2)c(Cl)c1 [Example 178, N-[4-[4-[2-(azetidin-3-yl)acetyl]piperazine-1-carbonyl]-3-chloro-phenyl]-5-[4-(difluoromethoxy)-2-fluoro-phenyl]-1-methyl-imidazole-2-carboxamide formate]
50 nM | Cn1c(-c2ccc(OC(F)F)c(F)c2F)cnc1C(=O)Nc1ccc(C(=O)N2CCN(C(=O)C3CCN(C(=O)C4(O)CCNCC4)CC3)CC2)c(Cl)c1 [Example 179, N-[3-chloro-4-[4-[1-(4-hydroxypiperidine-4-carbonyl)piperidine-4-carbonyl]piperazine-1-carbonyl]phenyl]-5-[4-(difluoromethoxy)-2,3-difluoro-phenyl]-1-methyl-imidazole-2-carboxamide formate]
60 nM | Cn1c(-c2ccc(OC(F)F)cc2F)cnc1C(=O)Nc1ccc(C(=O)N2CCN(C(=O)C3CCNCC3)CC2)c(Cl)c1 [Example 180, N-[3-chloro-4-[4-(piperidine-4-carbonyl)piperazine-1-carbonyl]phenyl]-5-[4-(difluoromethoxy)-2-fluoro-phenyl]-1-methyl-imidazole-2-carboxamide formate]
130 nM | Cn1c(-c2ccc(OC(F)F)c(F)c2)cnc1C(=O)Nc1ccc(C(=O)N2CCN(C(=O)C[C@@H]3CCCN3)CC2)c(Cl)c1 [Example 181, N-[3-chloro-4-[4-[2-[(2S)-pyrrolidin-2-yl]acetyl]piperazine-1-carbonyl]phenyl]-5-[4-(difluoromethoxy)-3-fluoro-phenyl]-1-methyl-imidazole-2-carboxamide formate]
70 nM | COc1ccc(-c2cnc(C(=O)Nc3ccc(C(=O)N4CCN(C(=O)CC5(O)CCNCC5)CC4)c(Cl)c3)n2C)c(Cl)c1F [Example 182, 5-(2-chloro-3-fluoro-4-methoxy-phenyl)-N-[3-chloro-4-[4-[2-(4-hydroxy-4-piperidyl)acetyl]piperazine-1-carbonyl]phenyl]-1-methyl-imidazole-2-carboxamide formate]
80 nM | CCOc1ccc(-c2cnc(C(=O)Nc3ccc(C(=O)N4CCN(C(=O)CC5(O)CCNCC5)CC4)c(Cl)c3)n2C)c(F)c1F [Example 183, N-[3-chloro-4-[4-[2-(4-hydroxy-4-piperidyl)acetyl]piperazine-1-carbonyl]phenyl]-5-(4-ethoxy-2,3-difluoro-phenyl)-1-methyl-imidazole-2-carboxamide formate]
20 nM | COc1ccc(-c2cnc(C(=O)Nc3ccc(C(=O)N4CCN(C(=O)[C@H]5[C@@H]6CNC[C@@H]65)CC4)c(Cl)c3)n2C)c(F)c1F [Example 184, N-[4-[4-[(1R,5S)-3-azabicyclo[3.1.0]hexane-6-carbonyl]piperazine-1-carbonyl]-3-chloro-phenyl]-5-(2,3-difluoro-4-methoxy-phenyl)-1-methyl-imidazole-2-carboxamide trifluoroacetate]
